In patent publication US8158088B2, “Extractant compositions for co-extracting cesium and strontium, a method of separating cesium and strontium from an aqueous feed, and calixarene compounds” (Battelle Energy Alliance, LLC, priority 2008, dated 2012):

Assay: Cesium distribution ratio (DCs), equilibrium batch contact of mixed extractant solvent with nitric acid feed
Format: physicochemical
Text: The distribution of cesium and strontium between the first organic phase (the mixed extractant solvent including the dialkyloxycalix[4]arenebenzocrown-6 compound) and the first aqueous phase (aqueous feed) may be determined by conventional techniques. The distribution ratio for strontium (“DSr”) may be calculated as the ratio of organic phase activity to the aqueous phase activity at equilibrium. High values for the DSr indicate that the strontium is present predominantly in the organic phase while low values for the DSr indicate that the strontium is present predominantly in the aqueous phase. Similarly, the distribution ratio for cesium (“DCs”) may be calculated as the ratio of organic phase activity to the aqueous phase activity at equilibrium. High values for the DCs indicate that the cesium is present predominantly in the organic phase while low values for the DCs indicate that the cesium is present predominantly in the aqueous phase.
Distribution ratios (DM=[M]org/[M]aq) were measured by equilibrium batch contacts between the organic and aqueous phases at an organic-to-aqueous phase ratio (O/A) of unity (O/A=1). All distribution ratio measurements were conducted in a temperature controlled water bath at 25±1° C. The aqueous phase was of the appropriate HNO3 concentration, to which trace quantities (typically, less than 10^−7 M each) of the major radionuclides of interest (^137Cs, ^85Sr, ^154Eu, or ^241Am) were added. The organic and aqueous phases were contacted by vortex mixing for 1 minute. All batch contact experiments were performed at ambient temperature (from approximately 20° C. to approximately 25° C.) unless otherwise noted. Following extraction, the samples were centrifuged for 1 minute and the organic and aqueous phases separated by pipet or centrifugation. The distribution ratios (DSr, or DCs) were calculated as the ratio of the appropriate specific activities in the organic and aqueous phases as determined by γ-ray counting (gamma spectroscopy). The counting time was selected to provide less than approximately 1% statistical uncertainty.
(MC-8, MC-8B, MC-10, MC-10B, MC-12, or MC-12B), 0.075 M DtBuCH18C6, 0.75 M Cs-7SB modifier, and 0.003 M TOA in ISOPAR® L were evaluated for their respective abilities to simultaneously extract cesium and strontium from the aqueous feed simulant composition described in Table 2. The cesium and strontium distribution ratios of the mixed extraction solvents were compared to those of the FPEX I process solvent. The cesium extraction performance and strontium extraction performance of each of the mixed extractant solvents was determined using the batch contact flowsheet presented in FIG. 1, where “E1,” “E2,” and “E3” refer to three forward extraction acts: a first extraction act, a second extraction act, and a third extraction act, respectively, and “St1” and “St2” refer to two backward extraction acts: a first strip act and a second strip act, respectively. […] The aqueous feed 2 and the mixed extractant solvent 4 were combined in a vessel 6 to conduct the extraction. Two phases were formed during the extraction: the first organic phase and the first aqueous phase, with the cesium and strontium substantially distributed in the first organic phase.
The cesium and strontium distribution ratios for the mixed extractant solvents 4 were calculated for the first organic phase and are reported in Tables 3 and 4, respectively, as E1, along with the cesium and strontium distribution ratios for the FPEX I process solvent. The cesium and strontium were stripped from the first (and subsequent) organic phase to recover these radionuclides. For the strips or backward extractions, the first (and subsequent) organic phase was contacted with dilute acidic solution 8, which was 0.01 M HNO3. […]

CCCCCCCCOc1c2cccc1Cc1cccc3c1OCCOCCOc1ccccc1OCCOCCOc1c(cccc1Cc1cccc(c1OCCCCCCCC)C3)C2 [MC-8, 1,3-alternate-25,27-di(octyloxy)calix[4]arenebenzocrown-6]
DCs (0.010 M MC-8, contact E1, 1.5 M HNO3, 0.075 M DtBuCH18C6, 0.75 M Cs-7SB, 0.003 M TOA in ISOPAR L): 7.2
DCs (0.015 M MC-8, contact E1, 1.5 M HNO3): 13.3
DCs (0.020 M MC-8, contact E1, 1.5 M HNO3): 21.5
DCs (0.025 M MC-8, contact E1, 1.5 M HNO3): 29.4
cesium distribution ratio (0.05 M MC-8 (as printed in text), 1.5 M HNO3): 29
DCs (1.0 M HNO3, 20 °C, contact E1, 0.025 M MC-8, 0.075 M DtBuCH18C6, 0.75 M Cs-7SB, 0.003 M TOA in ISOPAR L): 31.0
DCs (1.5 M HNO3, 20 °C, contact E1, 0.025 M MC-8): 35.6
DCs (2.0 M HNO3, 20 °C, contact E1, 0.025 M MC-8): 39.9
DCs (3.0 M HNO3, 20 °C, contact E1, 0.025 M MC-8): 3rd phase
DCs (4.0 M HNO3, 20 °C, contact E1, 0.025 M MC-8): 3rd phase
DCs (15 °C, contact E1, 1.0 M HNO3 feed, 0.025 M MC-8, 0.075 M DtBuCH18C6, 0.75 M Cs-7SB, 0.003 M TOA in ISOPAR L): 44.5
DCs (20 °C, contact E1, 1.0 M HNO3 feed, 0.025 M MC-8): 24.5
DCs (25 °C, contact E1, 1.0 M HNO3 feed, 0.025 M MC-8): 15.7
DCs (30 °C, contact E1, 1.0 M HNO3 feed, 0.025 M MC-8): 9.9
DCs (35 °C, contact E1, 1.0 M HNO3 feed, 0.025 M MC-8): 6.2
DCs (contact E1, batch contact flowsheet, simulated feed 1.0 M HNO3, 0.025 M MC-8): 34.7
DCs (contact E2, simulated feed 1.0 M HNO3, 0.025 M MC-8): 29.0
DCs (contact E3, simulated feed 1.0 M HNO3, 0.025 M MC-8): 21.9
DCs (contact St1 (strip), 0.025 M MC-8): 0.63
DCs (contact St2 (strip), 0.025 M MC-8): 0.25
Cesium distribution ratio, contact E1 (first forward extraction, 1.5 M HNO3 feed simulant, 25 °C, 0.007 M calixarene, 0.075 M DtBuCH18C6, 0.75 M Cs-7SB, 0.003 M TOA in ISOPAR L): 4.2
Cesium distribution ratio, contact St1 (first strip with 0.01 M HNO3, 35 °C, 0.007 M calixarene solvent): 0.6
Cesium distribution ratio, contact E2 (second forward extraction, 1.5 M HNO3 feed, 25 °C, 0.007 M calixarene solvent): 1.9
Cesium distribution ratio, contact St2 (second strip with 0.01 M HNO3, 35 °C, 0.007 M calixarene solvent): 0.2
Cesium distribution ratio, contact E3 (third forward extraction, 1.5 M HNO3 feed, 25 °C, 0.007 M calixarene solvent): 1.5
